Values quoted from earlier work, collected in publication PMC11785708, “Design and synthesis of new quinazolinone derivatives: investigation of antimicrobial and biofilm inhibition effects” (Molecular Diversity, 2024).

Test system: Candida albicans
Design: method as in doi:10.1002/slct.201803795
Conditions: read-out: anti-biofilm activity IC50; cited from earlier work

SMILES: COc1cc(OC)c(-c2nc3ccccc3c(=O)[nH]2)c(OC)c1 [V]
- IC50: < 30 µM
